Assay results from article PMC9490060, “Synthesis and evaluation of anticancer activity of quillaic acid derivatives: A cell cycle arrest and apoptosis inducer through NF-κB and MAPK pathways” (Frontiers in Chemistry, 2022).

Legend:
[1] = system: HCT116 (human colorectal cancer cell line); test: MTT anti-proliferative assay, HCT116; assay type: cell-based; conditions: means ± SD, n = 3; for IC50: Homo sapiens, HCT-116, 48 h incubation
From the text: (§1) The anti-proliferative activities against five human cancer cell lines, including HCT116 (human colorectal cancer cell line), MCF-7 (human breast cancer cell line), SW620 (human colorectal cancer cell line), BEL7402 (human hepatocellular carcinoma cell line), and HepG2 (human hepatocellular carcinoma cell line) were established for all the target compounds using the MTT assay.
(§2) The propidium iodide (PI) and Annexin V-FITC apoptosis detection kit were purchased from Invitrogen (Eugene, OR, United States). 3-(4,5-Dimethylthiazol-2-yl)-2,5-diphenyl-2H-tetrazolium bromide (MTT) was purchased from Sigma-Aldrich Co. (St. Louis, MO, United States). All human cell lines were used in this study, colorectal cancer cell HCT116, colorectal cancer cell SW620, breast cancer cell MCF-7, liver hepatocellular carcinoma cell BEL7402, liver hepatocellular carcinoma HepG2 and normal liver cell L02 were initially purchased from American Type Culture Collection (ATCC, Manassas, VA, United States). RPMI-1640 media, Dulbecco’s modified Eagle’s medium (DMEM), and foetal bovine serum (FBS) were provided from Gibco Company (Grand Island, NY, United States). Cell line MCF-7 and HepG2 were cultivated in DMEM containing 10% (v/v) heat-inactivated FBS, 100 units/ml penicillin and […] streptomycin (Grand Island, NY, United States). Cell lines HCT116, BEL7402, SW620, and L02 were cultivated in RPMI 1640 medium containing 10% (v/v) heat-inactivated FBS, 100 units/ml penicillin, and […] streptomycin. The cells were incubated at 37°C under a 5% CO2 and 90% relative humidity (RH) atmosphere.
(§3) Stock solutions were prepared by diluting target compounds in DMSO at concentrations (1.25, 2.5, 5, and 10 mM). The stock solution was then diluted (1.25, 2.5, 5, and 10 μM) with culture medium, and the concentration of DMSO was controlled not to exceed 0.1%.
(§4) Place the cells in a 96-well plate at an appropriate density to ensure exponential growth (1 × 10^4–1.2×10^4 cells per well) throughout the experiment, and then allow the cells to adhere for 24 h. The cells were then treated with continuous concentrations of each compound (1.25, 2.5, 5, and 10 μM) for 48 h. After 48 h of incubation, 15 μl of MTT solution was added to each well, and the final concentration was 2 mg/ml. Then incubate for another 4 h. After incubation, remove the MTT solution and add […] of DMSO to each well for staining. Shake vigorously for 10 min at room temperature to ensure complete dissolution. The optical density (OD) was read on a microplate reader (ELx 800, BioTek, Highland Park, Winooski, VT, United States) with a wavelength of 492 nm, and then the data was analyzed.

[2] = system: BEL7402 (human hepatocellular carcinoma cell line); test: MTT anti-proliferative assay, BEL7402; assay type: cell-based; conditions: means ± SD, n = 3; for IC50: Homo sapiens, Bel-7402, 48 h incubation
From the text: as §1, §2, §3, §4

[3] = system: HepG2 (human hepatocellular carcinoma cell line); test: MTT anti-proliferative assay, HepG2; assay type: cell-based; conditions: means ± SD, n = 3; for IC50: Homo sapiens, HepG2, 48 h incubation
From the text: as §1, §2, §3, §4

[4] = system: SW620 (human colorectal cancer cell line); test: MTT anti-proliferative assay, SW620; assay type: cell-based; conditions: means ± SD, n = 3; for IC50: Homo sapiens, SW-620, 48 h incubation
From the text: as §1, §2, §3, §4

[5] = system: MCF-7 (human breast cancer cell line); test: MTT anti-proliferative assay, MCF-7; assay type: cell-based; conditions: means ± SD, n = 3; for IC50: Homo sapiens, MCF7, 48 h incubation
From the text: as §1, §2, §3, §4

[6] = system: L02 (human normal liver cells); test: Cytotoxicity against normal cell line L02; assay type: cell-based
From the text: The lack of selectivity between normal and cancer cells is one of the main limitations of antitumor drugs ([Dy and Adjei, 2013]). Therefore, we evaluated the cytotoxicity of compounds B2, and E in normal cell lines L02 (human normal liver cells) to determine the selectivity index (ratio of cytotoxicity in L02 cells compared to that in cancer cells). […] Therefore, this compound was chosen for further biological studies.
as §2, §3, §4

Row | IC50 [1] [µM] | IC50 [2] [µM] | IC50 [3] [µM] | melting point [°C] | IC50 [4] [µM] | IC50 [5] [µM] | IC50 values HCT116 ([1]; 48 h incubation) | IC50 values BEL7402 ([2]; 48 h incubation) | IC50 values HepG2 ([3]; 48 h incubation) | IC50 values SW620 ([4]; 48 h incubation) | IC50 values MCF-7 ([5]; 48 h incubation) | Compound | IC50 ([6]; Homo sapiens, normal cell line L02) [µM] | Selectivity index BEL7402 ([6]; IC50 on normal cells (L02)/IC50 on tumour cells (BEL7402)) | Selectivity index HCT116 ([6]; IC50 on normal cells (L02)/IC50 on tumour cells (HCT116)) | Selectivity index SW620 ([6]; IC50 on normal cells (L02)/IC50 on tumour cells (SW620))
1 | 3.12 ± 0.87 | 2.84 ± 0.66 | 4.59 ± 1.73 | 122 to 124 | 7.75 ± 1.43 | 3.99 ± 1.28 | – | – | – | – | – | CC1(C)CC[C@]2(C(=O)OCc3nnc(-c4ccc(F)cc4)o3)[C@H](O)C[C@]3(C)C(=CC[C@@H]4[C@@]5(C)CC[C@H](O)[C@@](C)(C=O)[C@@H]5CC[C@]43C)[C@@H]2C1 [Compound B2, (5-(4-fluorophenyl)-1,3,4-oxadiazol-2-yl)methyl (4aR,5R,6aS,6bR,8aR,9S,10S,12aR,12bR,14bS)-9-formyl-5,10-dihydroxy-2,2,6a,6b,9,12a-hexamethyl-1,3,4,5,6,6a,6b,7,8,8a,9,10,11,12,12a,12b,13,14b-octadecahydropicene-4a (2H)-carboxylate] | > 10 | > 3.52 | > 3.20 | > 1.29
2 | > 10 | > 10 | > 10 | 187 to 189 | > 10 | > 10 | – | – | – | – | – | CC1(C)CC[C@]2(C(=O)OCCn3ncn(-c4ccc(Cl)c(Cl)c4)c3=O)[C@H](O)C[C@]3(C)C(=CC[C@@H]4[C@@]5(C)CC[C@H](O)[C@@](C)(C=O)[C@@H]5CC[C@]43C)[C@@H]2C1 [Compound C4, 2-(4-(3,4-dichlorophenyl)-5-oxo-4,5-dihydro-1H-1,2,4-triazol-1-yl)ethyl (4aR,5R,6aS,6bR,8aR,9S,10S,12aR,12bR,14bS)-9-formyl-5,10-dihydroxy-2,2,6a,6b,9,12a-hexamethyl-1,3,4,5,6,6a,6b,7,8,8a,9,10,11,12,12a,12b,13,14b-octadecahydropicene-4a (2H)-carboxylate] | – | – | – | –
3 | 3.21 ± 1.07 | > 10 | > 10 | 186 to 188 | 7.25 ± 1.72 | > 10 | – | – | – | – | – | COc1ccc(-n2cnn(CCOC(=O)[C@]34CCC(C)(C)C[C@H]3C3=CC[C@@H]5[C@@]6(C)CC[C@H](O)[C@@](C)(C=O)[C@@H]6CC[C@@]5(C)[C@]3(C)C[C@H]4O)c2=O)cc1 [Compound C5, 2-(4-(4-methoxyphenyl)-5-oxo-4,5-dihydro-1H-1,2,4-triazol-1-yl)ethyl (4aR,5R,6aS,6bR,8aR,9S,10S,12aR,12bR,14bS)-9-formyl-5,10-dihydroxy-2,2,6a,6b,9,12a-hexamethyl-1,3,4,5,6,6a,6b,7,8,8a,9,10,11,12,12a,12b,13,14b-octadecahydropicene-4a (2H)-carboxylate] | – | – | – | –
4 | > 10 | > 10 | > 10 | 176 to 178 | > 10 | > 10 | no strong activity | no strong activity | no strong activity | no strong activity | no strong activity | CC1(C)CC[C@]2(C(=O)OCc3cc(-c4ccccc4)no3)[C@H](O)C[C@]3(C)C(=CC[C@@H]4[C@@]5(C)CC[C@H](O)[C@@](C)(C=O)[C@@H]5CC[C@]43C)[C@@H]2C1 [D, (3-phenylisoxazol-5-yl)methyl (4aR,5R,6aS,6bR,8aR,9S,10S,12aR,12bR,14bS)-9-formyl-5,10-dihydroxy-2,2,6a,6b,9,12a-hexamethyl-1,3,4,5,6,6a,6b,7,8,8a,9,10,11,12,12a,12b,13,14b-octadecahydropicene-4a (2H)-carboxylate] | – | – | – | –
